Here are results for 14 compounds from US9145391B2, “Bipyridylaminopyridines as Syk inhibitors” (Merck Sharp & Dohme Corp., priority 2011, dated 2015).

Where only a bound is given, the exact number is not on record here.

Data set [1] concerns the target recombinant human GST-Syk (Homo sapiens (Human), UniProt P43405). As to the kind of experiment: Homogeneous Time-Resolved Fluorescence (HTRF) assay for the recombinant human Syk enzyme. It counts as biochemical. Conditions: recombinant human GST-Syk 5 pM, ATP 25 μM, read-out: rhSyk IC50. The essentials: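 HTRF read-out of phosphorylation of a biotinylated Syk-site peptide (250 nM final) by a GST-tagged human Syk fusion. Reaction initiated with ATP at 25 μM final plus 5 mM magnesium final. Compound potency taken from inhibition of human Syk activity.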

Data set [2] can be described thus: Hydrolysis assay: hydrolysis of prodrug to parent species in human liver S9. The conditions noted are these: human liver S9 1 mg protein/mL, prodrug 10 μM, 37° C., pH 7.4, 1 mM NADPH; for half-life at 10 μM: read-out: Half-life (min) of the conversion of the prodrug to the carboxylic acid. It counts as in vitro ADME. The procedure: Hydrolysis Assay: Analysis of Hydrolysis of Prodrug to Parent Species
The stability of 8 different prodrugs was investigated in human liver S9 microsomes. Incubations of prodrugs (10 μM) with liver S9 (1 mg protein/mL) were carried out at 37° C. in a phosphate buffer, pH 7.4, containing 1 mM NADPH. Control incubations contained BSA (1.1 mg/mL) instead of liver S9 microsomes. Aliquots were removed at 0, 5, 15, 30, 60 and 120 min, treated with 4 volumes of acetonitrile containing 2% formic acid and an internal standard, and centrifuged. The supernatants were analyzed by LC-MS/MS for prodrug disappearance and appearance of active drug. The half-life of the prodrug was calculated from the % prodrug remaining at different time points calculated from on the peak area ratio relative to t=0. The amount of active drug generated at the different time points was determined using a standard curve.

In data set [3] the target is T1, Syk kinase (Homo sapiens (Human), UniProt P43405). Conditions: phase II clinical trial, allergic rhinitis; cited from earlier work.
The target in data set [4] is T1, Syk kinase. Conditions: dosed intranasally, allergic rhinitis; cited from earlier work.

With `CCOC(=O)[C@H]1CC[C@H](C(C)(O)c2ccc(-c3cc(C)cc(Nc4cc(C(F)F)ccn4)n3)cn2)CC1` (single isomer, unassigned) [Example 17, Ethyl trans-4-[(1R or 1S)-1-(6-{[4-(difluoromethyl)pyridin-2-yl]amino}-4-methyl-2,3′-bipyridin-6′-yl)-1-hydroxyethyl]cyclohexanecarboxylate], the concentration for half-maximal inhibition (IC50) in data set [1] was 18 nM. The half-life at 10 μM in data set [2] worked out at 5.6 min. Regarding `CCCCCCCOC(=O)[C@H]1CC[C@H](C(C)(O)c2ccc(-c3cc(C)cc(Nc4cc(C(F)F)ccn4)n3)cn2)CC1` (single isomer, unassigned) [Example 19-10, heptyl trans-4-[(1R or 1S)-1-(6-{[4-(difluoromethyl)pyridin-2-yl]amino}-4-methyl-2,3′-bipyridin-6′-yl)-1-hydroxyethyl] cyclohexanecarboxylate], in data set [1], the IC50 amounted to 670 nM. Moreover, the “Half-life (min) of the conversion of the prodrug to the carboxylic acid” value (shortened to “Half-life (min)”) in data set [2] is on record as 40 min. Consider `COCCOC(=O)[C@H]1CC[C@H](C(C)(O)c2ccc(-c3cc(C)cc(Nc4cc(C(F)F)ccn4)n3)cn2)CC1` (single isomer, unassigned) [Example 19-15, 2-methoxyethyl trans-4-[(1R or 1S)-1-(6-{[4-(difluoromethyl)pyridin-2-yl]amino}-4-methyl-2,3′-bipyridin-6′-yl)-1-hydroxyethyl] cyclohexanecarboxylate], for which, in data set [1], the IC50 was 6.4 nM. In data set [2], the “Half-life (min)” value is reported as 3.9 min.

In the case of `Cc1cc(Nc2cc(C(F)F)ccn2)nc(-c2ccc(C(C)(O)[C@H]3CC[C@H](C(=O)OCC(=O)N(C)C)CC3)nc2)c1` (single isomer, unassigned) [Example 19-18, 2-(dimethylamino)-2-oxoethyl trans-4-[(1R or 1S)-1-(6-{[4-(difluoromethyl)pyridin-2-yl]amino}-4-methyl-2,3′-bipyridin-6′-yl)-1-hydroxyethyl] cyclohexanecarboxylate], in data set [1], the IC50 was determined as 1.2 nM. The “Half-life (min)” value in data set [2] is given as 6.2 min.

In the case of `Cc1cc(Nc2cc(C(F)F)ccn2)nc(-c2ccc(C(C)(O)[C@H]3CC[C@H](C(=O)OCCN4CCOCC4)CC3)nc2)c1` (single isomer, unassigned) [Example 19-19, 2-{morpholin-4-yl)ethyl trans-4-[(1R or 1S)-1-(6-{[4-(difluoromethyl)pyridin-2-yl]amino}-4-methyl-2,3′-bipyridin-6′-yl)-1-hydroxyethyl] cyclohexanecarboxylate], the half-maximal inhibitory concentration (IC50) in data set [1] was found to be 8.7 nM. Moreover, the “Half-life (min)” value in data set [2] is 15 min. Turning to `CCOC(=O)OCOC(=O)[C@H]1CC[C@H](C(C)(O)c2ccc(-c3cc(C)cc(Nc4cc(C(F)F)ccn4)n3)cn2)CC1` (single isomer, unassigned) [Example 20, [(Ethoxycarbonyl)oxy]methyl trans-4-[(1R or 1S)-1-(6-{[4-(difluoromethyl)pyridin-2-yl]amino}-4-methyl-2,3′-bipyridin-6′-yl)-1-hydroxyethyl]cyclohexanecarboxylate], the IC50 in data set [1] is 14 nM. Moreover, the half-life at 10 μM in data set [2] turned out to be 3 min. For `CC(=O)OCOC(=O)[C@H]1CC[C@H](C(C)(O)c2ccc(-c3cc(C)cc(Nc4cc(C(F)F)ccn4)n3)cn2)CC1` (single isomer, unassigned) [Example 21, (Acetyloxy)methyl trans-4-[(1R or 1S)-1-(6-{[4-(difluoromethyl)pyridin-2-yl]amino}-4-methyl-2,3′-bipyridin-6′-yl)-1-hydroxyethyl]cyclohexanecarboxylate], the IC50 in data set [1] is 11 nM. Moreover, the half-life at 10 μM in data set [2] was 3.3 min. In the same order, the values of `COC(=O)[C@H]1CC[C@H](C(C)(O)c2ccc(-c3cc(C)cc(Nc4cc(C(F)F)ccn4)n3)cn2)CC1` (single isomer, unassigned) [Example 22, Methyl trans-4-[(1R or 1S)-1-(6-{[4-(difluoromethyl)pyridin-2-yl]amino}-4-methyl-2,3′-bipyridin-6′-yl)-1-hydroxyethyl]cyclohexanecarboxylate] are 8 nM and 4.6 min. `Cc1cc(Nc2cc(C(F)(F)F)ccn2)nc(-c2ccc(C3(O)CCN(C(=O)c4[nH]c5ccccc5c4C)CC3)nc2)c1` [Example 9-5]: in data set [1], the IC50 turned out to be 112 nM. Take `Cc1cc(Nc2cc(C(F)(F)F)ccn2)nc(-c2ccc(C3(O)CCN(C(=O)c4cc(-c5ccncc5)[nH]n4)CC3)nc2)c1` [Example 9-6]: the IC50 in data set [1] was 12 nM.

Regarding `Cc1cc(Nc2cc(C(F)(F)F)ccn2)nc(-c2ccc(C[C@H]3CC[C@@H](C(=O)O)CC3)nc2)c1` [Example 10 cis isomer, cis-4-[(4-methyl-6-{[4-(trifluoromethyl)pyridin-2-yl]amino}-2,3′-bipyridin-6′-yl)methyl]cyclohexanecarboxylic acid], the IC50 in data set [1] stood at 1 nM. For the compound `Cc1cc(Nc2cc(C(F)(F)F)ccn2)nc(-c2ccc(C[C@H]3CC[C@H](C(=O)O)CC3)nc2)c1` [Example 10 trans isomer, trans-4-[(4-methyl-6-{[4-(trifluoromethyl)pyridin-2-yl]amino}-2,3′-bipyridin-6′-yl)methyl]cyclohexanecarboxylic acid], the IC50 in data set [1] is less than 0.5 nM. Still for that read-out and setting: then `Cc1cc(Nc2cc(C(F)(F)F)ccn2)nc(-c2ccc(NC3CCN(C(=O)c4cccc5c4NC(=O)C5)CC3)nc2)c1` [Example 447], with 6 nM. With `Oc1cccc(Nc2ncc(F)c(Nc3cccc(O)c3)n2)c1` [Example R112], the efficacy versus placebo entry at Syk kinase [3] is on record as “lack of efficacy versus placebo”. At Syk kinase [4], the PGD2 change result is “statistically significant decrease in PGD2” and the clinical safety result is given as “safe across a range of indicators”.
